Data from US9593305B2, “Differentiation of pluripotent stem cells” (Janssen Biotech, Inc., priority 2008, dated 2017).

What was measured:
[1] = system: H1 human embryonic stem cells; assay: Step-wise differentiation, RT-PCR of differentiation markers (Example 12, Table 13); format: cell-based; conditions: GDF-8 200 ng/ml with Wnt3a or 2.5 μM compound in step 1, versus activin A/Wnt3a
Description: Stock cultures of human embryonic stem cells (H1 human embryonic stem cell line) were maintained in an undifferentiated, pluripotent state on reduced growth factor […]™-coated dishes in MEF conditioned medium with passage on average every four days. Passage was performed by exposing cell cultures to a solution of 1 mg/ml dispase (Invitrogen; Cat #17105-041) for 5 to 7 minutes at 37° C. followed by rinsing the monolayer with MEF conditioned culture medium and gentle scraping to recover cell clusters. Clusters were centrifuged at low speed to collect a cell pellet and remove residual dispase. Cell clusters were split at a 1:3 or 1:4 ratio for routine maintenance culture or a 1:1 ratio for immediate assay. All human ES cell lines were maintained at passage numbers less than 50 and routinely evaluated for normal karyotype and absence of mycoplasma.
Cell clusters were evenly resuspended in MEF conditioned medium supplemented with 8 ng/ml bFGF and seeded onto reduced growth factor […]™-coated 24-well, black wall culture plates (Arctic White; Cat #AWLS-303012) in volumes of 0.5 ml/well. Daily feeding was conducted by aspirating spent culture medium from each well and replacing with an equal volume of fresh medium. Plates were maintained at 37° C., 5% CO2 throughout the duration of assay.
The assay was initiated by aspirating the culture medium from each well and adding back an aliquot (0.5 ml) of test medium. Test conditions for the first step of differentiation were conducted over a three-day period, feeding daily by aspirating and replacing the medium from each well with fresh test medium. On the first day of assay, 100 ng/ml activin A (PeproTech; Cat #120-14) or 200 ng/ml GDF-8 (R&D Systems, Cat #788-G8) was added to respective assay wells where each growth factor was diluted into RPMI-1640 medium (Invitrogen; Cat #22400) with 1% Albumin Bovine Fraction V, Fatty Acid Free (FAF BSA) (MP Biomedicals, Inc; Cat 152401), 1% Probumin (Millipore; Cat #81-068-3) and 20 ng/ml Wnt3a (R&D Systems; Cat #1324-WN/CF). […]

[2] = system: H1 human embryonic stem cells; assay: Step-wise differentiation, FACS for CXCR4 after step 1 (Example 12); format: cell-based; conditions: compared to activin A and Wnt3a
Description: The assay was initiated by aspirating the culture medium from each well and adding back an aliquot (0.5 ml) of test medium. Test conditions for the first step of differentiation were conducted over a three-day period, feeding daily by aspirating and replacing the medium from each well with fresh test medium. On the first day of assay, 100 ng/ml activin A (PeproTech; Cat #120-14) or 200 ng/ml GDF-8 (R&D Systems, Cat #788-G8) was added to respective assay wells where each growth factor was diluted into RPMI-1640 medium (Invitrogen; Cat #22400) with 1% Albumin Bovine Fraction V, Fatty Acid Free (FAF BSA) (MP Biomedicals, Inc; Cat 152401), 1% Probumin (Millipore; Cat #81-068-3) and 20 ng/ml Wnt3a (R&D Systems; Cat #1324-WN/CF). On the second day of assay, 100 ng/ml activin A or 200 ng/ml GDF-8 was diluted into RPMI-1640 medium supplemented with 2% FAF BSA without Wnt3a. In some test samples using GDF-8, Wnt3a was replaced with a either Compound 34 or Compound 56 at a concentration of 2.5 μM, and either Compound 34 or Compound 56 was added daily during all three days of definitive endoderm differentiation. At the conclusion of the first step of differentiation, cells from some wells were harvested for flow cytometry analysis to evaluate levels of CXCR4, a marker of definitive endoderm formation. Additional wells were harvested for RT-PCR analysis to measure other markers of differentiation.
Cells for FACS analysis were blocked in a 1:5 solution of 0.5% human gamma-globulin (Sigma; Cat#G-4386) in PBS (Invitrogen; Cat #14040-133): BD FACS staining buffer-BSA (BD; Cat #554657) for 15 minutes at 4° C. Cells were then stained with antibodies for CD9 PE (BD; Cat #555372), CD99 PE (Caltag; Cat #MHCD9904) and CXCR4 APC(R&D Systems; Cat#FAB 173A) for 30 minutes at 4° C. After a series of washes in BD FACS staining buffer, the cells were stained for viability with 7-AAD (BD; Cat #559925) and run on a BD FACSAiray. A mouse IgG1K Isotype control antibody for both PE and APC was used to gate percent positive cells.

[3] = 200 ng/ml GDF-8 with 2.5 μM compound all three days

## Cc1c[nH]c(-c2cnc(NCCNc3ccc(C#N)cn3)nc2-c2ccc(Cl)cc2Cl)n1 [Compound 56, 6-[(2-{[4-(2,4-Dichlorophenyl)-5-(4-methyl-1H-imidazol-2-yl)pyrimidin-2-yl]amino}ethyl)amino]pyridine-3-carbonitrile]
[1]
  expression levels of markers associated with endodermal and endocrine differentiation (PCR): similar, or in some instances, improved expression levels
[2]; [3]
  percentage of CXCR4 positive cells after step 1: equivalent or higher percentage of CXCR4 positive cells

## GDF-8: growth factor GDF-8, also known as myostatin, member of the TGF-β family
[1]
  expression levels of markers associated with endodermal and endocrine differentiation (PCR): similar, or in some instances, improved expression levels
[2]; 200 ng/ml GDF-8 with Wnt3a
  percentage of CXCR4 positive cells after step 1: equivalent percentage of CXCR4 positive cells

## O=C1CCN2CCN(CC2)Cc2cc(Cl)cc(c2)Nc2ncnc(n2)-c2cncc(c2)CCCN1 [Compound 34, 5-Chloro-1,8,10,12,16,22,26,32-octaazapentacyclo[24.2.2.1˜3.7˜0.1˜9,13˜0.1˜14.18˜]tritriaconta-3(33), 4,6,9(32), 10,12,14(31), 15,17-nonaen-23-one]
[1]
  expression levels of markers associated with endodermal and endocrine differentiation (PCR): similar, or in some instances, improved expression levels
[2]; [3]
  percentage of CXCR4 positive cells after step 1: equivalent or higher percentage of CXCR4 positive cells
